Laboratory results from US20020081684A1, “Method and nucleotide sequence for transforming microorganisms” (priority 1995, published 2002).

What was measured:
[1] = biological target: T1, L-malic acid carrier in S. pombe (Schizosaccharomyces pombe, UniProt P50537); details: Sousa et al. (1992); cited from earlier work
T1 construct: host or cells: S. pombe cells (per the assay title)
T1 sequence (P50537 1-438): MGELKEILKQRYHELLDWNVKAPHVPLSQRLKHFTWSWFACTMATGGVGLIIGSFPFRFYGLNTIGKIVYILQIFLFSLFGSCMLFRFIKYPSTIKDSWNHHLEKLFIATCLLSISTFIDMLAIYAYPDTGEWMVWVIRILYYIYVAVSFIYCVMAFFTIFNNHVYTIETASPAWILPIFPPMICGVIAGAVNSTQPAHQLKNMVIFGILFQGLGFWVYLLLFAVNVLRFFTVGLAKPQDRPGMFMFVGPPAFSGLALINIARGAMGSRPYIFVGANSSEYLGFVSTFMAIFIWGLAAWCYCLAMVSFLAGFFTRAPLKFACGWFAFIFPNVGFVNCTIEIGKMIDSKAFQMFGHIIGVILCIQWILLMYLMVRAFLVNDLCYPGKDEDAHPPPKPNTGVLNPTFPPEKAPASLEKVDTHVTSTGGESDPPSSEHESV

[2] = biological target: T2, S. pombe Mae1 permease (Schizosaccharomyces pombe, UniProt P50537); assay: Transport assays for 14C-labelled L-malic, succinic, malonic and α-ketoglutaric acids in S. pombe wild-type, mae1- mutant and complemented mutant; assay type: cell-based; details: 14C-labelled acid, 0.1 M KCl pH 3.5, 30° C.
T2 construct: endogenous in cells; host or cells: S. pombe 972 leu1-32 h- (wild type); also the mae1- mutant complemented with the 3.4 kb SmaI genomic mae1 fragment in pRS315
T2 sequence (P50537 1-438): T1 sequence (P50537 1-438)
Experimental: Yeast cells in the logarithmic growth phase (OD of 1.2 at A595) were harvested and washed three times with 0.1 M KCI (pH 3.5). The cells were resuspended in 4 ml 0.1 M KCI (pH 3.5) and stored at 4° C. Transport assays were completed within 3 h. The cell suspensions were pre-incubated for 5 min in a shaker water bath at 30° C. at 100 rpm. Assays were initiated by adding 25 μl of ^14C-labelled L malate (45 μCi/μmol) (Amersham), 100 μl of succinic acid (42 μCi/μmol) (ICN), 100 μl malonic add (56.7 μCi/μmol) (Du Pont) or 100 μl a-ketoglutarate (51.8 μCi/μmol) (Du Pont). A 0.5-ml sample was withdrawn at 10, 20, 40, 60, and 120 sec intervals, rapidly filtered through 0.45 μm membranes (Mllipore Corporation, Bedford, Mass.), and immediately washed three times with 5 ml amounts of ice-cold 0.1 M KCI (pH 3.5). Filters containing the cells were oven-dried at 50° C. and placed in scintillation vials containing 5 ml of scintillation reaction mixture (Boehringer Mannheim, Mannheim, Germany). Pre-boiled (5 min) cells were used to determine non-specific binding of [^14C] malate, succinate, malonate and α-ketoglutarate to the yeast cells.

| transport in the mae1-mutant complemented with the 3.4kb Sma1 fragment containing the mae1 gene [2] | SMILES | inhibition of initial uptake rates of L-malic acid [1] |
| --- | --- | --- |
| – | O=C(O)C[C@@H](O)C(=O)O [D-malic acid] | competitive inhibition |
| fully restored | O=C(O)C[C@H](O)C(=O)O [L-malic acid] | – |
| – | O=C(O)/C=C/C(=O)O [fumaric acid] | competitive inhibition |
| – | O=C(O)/C=C\C(=O)O [maleic acid] | competitive inhibition |
| fully restored | O=C(O)CC(=O)O [malonic acid] | competitive inhibition |
| – | O=C(O)CC(=O)C(=O)O [oxaloacetic acid] | competitive inhibition |
| fully restored | O=C(O)CCC(=O)O [succinic acid] | competitive inhibition |
